According to PubChem BioAssay (NCI):
Several values for one entry are separate records, joined by “and”; a condition that tells them apart may be missing. Equal entries are not always repeated.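 Method: 48-hour compound exposure of cells in 96-well plates, five concentrations, linear interpolation of endpoints. GI50 marks 50% less growth. TGI marks complete inhibition of growth.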

Experiments:
Assay in all cases: DTP human tumour cell line panel, 48 h
HCC-2998 colon = test system: HCC-2998 colon
SF-295 CNS = test system: SF-295 CNS
KM12 colon = test system: KM12 colon
UO-31 renal = test system: UO-31 renal
BT-549 breast = test system: BT-549 breast
A549 NSCLC = test system: A549 NSCLC
MALME-3M melanoma = test system: MALME-3M melanoma
HOP-62 NSCLC = test system: HOP-62 NSCLC
HCT-116 colon = test system: HCT-116 colon
OVCAR-3 ovarian = test system: OVCAR-3 ovarian

Structure (SMILES)	GI50 (HCC-2998 colon)	TGI (HCC-2998 colon)	GI50 (SF-295 CNS)	TGI (SF-295 CNS)	GI50 (KM12 colon)	TGI (KM12 colon)	GI50 (UO-31 renal)	TGI (UO-31 renal)	GI50 (BT-549 breast)	TGI (BT-549 breast)	GI50 (A549 NSCLC)	TGI (A549 NSCLC)	GI50 (MALME-3M melanoma)	TGI (MALME-3M melanoma)	GI50 (HOP-62 NSCLC)	TGI (HOP-62 NSCLC)	GI50 (HCT-116 colon)	TGI (HCT-116 colon)	GI50 (OVCAR-3 ovarian)	TGI (OVCAR-3 ovarian)
O=C1NC(=O)C(c2cnc3ccccn23)=C1c1cn2c3c(cc(F)cc13)CN(C(=O)N1CCCCC1)CC2	14.6 µM	32.8 µM	0.142 µM	33.9 µM	10.6 µM	25.4 µM	2.54 µM	> 65.5 µM	14.7 µM	45 µM	7.85 µM	71.5 µM	30.7 µM	60.8 µM	15 µM	40.4 µM	3.35 µM	> 89.8 µM	11.8 µM	44 µM
CC(C)CCN1c2nc(Nc3cc(F)c(O)c(F)c3)ncc2N(C)C(=O)C1C (stereo unspecified)	3.54 µM	17.1 µM	11.3 µM	> 100 µM	2.92 µM	14.7 µM	0.939 µM	16.8 µM	5.66 µM	> 67.7 µM	4.88 µM	37.6 µM	6.63 µM	64 µM	6.66 µM	> 100 µM	4.37 µM	30.1 µM	3.65 µM	24.1 µM
CS(=O)(=O)Nc1ccc2c(c1)oc(=O)c1ccccc12		> 100 µM		> 100 µM		> 100 µM		> 100 µM		> 100 µM		> 100 µM		> 100 µM		> 100 µM		> 100 µM		> 100 µM
C=C1CC[C@@H]2[C@](C)(COC(C)=O)[C@H](OC(C)=O)CC[C@@]2(C)[C@@H]1CC(Sc1ccccc1)C1=CCOC1=O (stereo partly specified)	2.1 µM	4.07 µM	4.12 µM	27.3 µM	1.4 µM	2.96 µM	1.2 µM	2.53 µM	1.59 µM	3.99 µM	2.73 µM	7.77 µM	1.74 µM	3.63 µM	2.89 µM	5.52 µM	0.854 µM	2.18 µM	1.14 µM	2.37 µM
COc1cc(C#CC(=O)OC/C=C/c2ccc3c(c2)OCO3)cc(OC)c1OC		49.2 µM		> 100 µM		> 100 µM		37 µM		52.3 µM		> 100 µM		47.7 µM		86 µM		> 100 µM		63.3 µM
Clc1nc2ccccc2nc1CI	19.1 µM	35.9 µM	18.9 µM	44.9 µM	18.2 µM	46.5 µM	2.05 µM	5.17 µM	6.13 µM	18.2 µM	19.2 µM	38.6 µM	2.2 µM	4.52 µM	13.4 µM	30.6 µM	1.95 µM	3.95 µM	5.1 µM	9.66 µM
NC(=O)NC1C(c2ccccc2)=C1c1ccccc1		35.8 µM		54.6 µM		62.2 µM		28.8 µM		26.7 µM		74.6 µM		61 µM		> 100 µM		38.7 µM		82.9 µM
O=C(Cc1ccc(/C=C/C(=O)c2ncc[nH]2)cc1)Nc1cc(F)c(F)c(F)c1	3.57 µM	7.03 µM	6.82 µM	20.5 µM	2.81 µM	6.85 µM	3.36 µM	6.56 µM	3.37 µM	6.74 µM	4.13 µM	17.8 µM	4.33 µM	12.2 µM	3.71 µM	8.12 µM	2.04 µM	5.38 µM	2.81 µM	6.14 µM
COc1ccc(-n2cc(-c3cc(OC)c(OC)c(OC)c3)c(C(=O)C(F)(F)F)c2C)cc1	> 100 µM	> 100 µM	> 100 µM	> 100 µM	32.6 µM	> 100 µM	4.6 µM	> 100 µM	56.2 µM	> 100 µM	28 µM	> 100 µM	> 100 µM	> 100 µM	> 100 µM	> 100 µM	6.93 µM	> 100 µM	24.9 µM	> 100 µM
CCCCCCCCCCCCOC1C(C(COC2OC(C3COC(C)(C)O3)C3OC(C)(C)OC23)NC(=O)Nc2ccc(C(=O)O)cc2)OC2OC(C)(C)OC21 (stereo unspecified)	2.05 µM	3.82 µM	2.15 µM	5.69 µM	2.22 µM	4.36 µM	3.99 µM	13.3 µM	1.79 µM	4.59 µM	3.34 µM	10.9 µM	2.88 µM	6.91 µM	3.07 µM	10.4 µM	2.87 µM	10.8 µM	2.48 µM	7.49 µM
COc1ccc(C(C)=O)cc1N1C(=O)C2C(C1=O)C1(c3ccccc3)C(=O)C2(c2ccccc2)C(c2ccc(C)cc2)=C1c1ccc(C)cc1 (stereo unspecified)	> 100 µM	> 100 µM	> 100 µM	> 100 µM	> 100 µM	> 100 µM	> 100 µM	> 100 µM	> 100 µM	> 100 µM	> 100 µM	> 100 µM	> 100 µM	> 100 µM	> 100 µM	> 100 µM	> 100 µM	> 100 µM	> 100 µM	> 100 µM
CC(CCC=O)CCOCc1ccccc1 (stereo unspecified)		> 100 µM		> 100 µM		> 100 µM		> 100 µM		> 100 µM		> 100 µM		> 100 µM		> 100 µM		> 100 µM		> 100 µM
CC(=O)c1cccc(NC(=O)C(=O)NNc2n[nH]c(=S)n2N)c1		27.5 µM		16.9 µM		30.9 µM		22.6 µM		6.65 µM		14.5 µM		5.18 µM		29.3 µM		12.8 µM		15.9 µM
O=C(Nc1nc2ccc(C(F)(F)F)cc2s1)c1cc(Cl)ccc1O	0.781 µM	73.6 µM	0.831 µM	3.16 µM	0.611 µM	22 µM	1.19 µM	8.79 µM	0.89 µM	7.77 µM	1.51 µM	> 100 µM	0.626 µM	4.48 µM	2.03 µM	7.09 µM	0.414 µM	11 µM	0.422 µM	56 µM
CCCCCCCCCCCCCC1=NC(C)(C)CN1C(C)C	1.41 µM	2.74 µM	1.62 µM	3.15 µM	1.65 µM	3.01 µM	1.39 µM	2.69 µM	2.33 µM	6 µM	1.76 µM	3.25 µM	1.7 µM	3.41 µM	1.73 µM	3.17 µM	1.38 µM	2.68 µM	1.48 µM	2.8 µM
C=CCCCCC/C=C\[C@H](O)C#CC#C/C=C/CO	12.5 µM	25.1 µM	60.3 µM	> 100 µM	18.3 µM	33.7 µM	61.9 µM	> 100 µM	20.1 µM	54.7 µM	21.2 µM	45.4 µM	54 µM	> 100 µM	> 100 µM	> 100 µM	22.6 µM	48.6 µM	31.7 µM	80.3 µM
[Cl][Hg][c]1cc(Br)cc(Br)c1	2.08 µM	4.29 µM	3.31 µM	15.7 µM	2.78 µM	11.8 µM	4.64 µM	15.5 µM	1.95 µM	5.47 µM	12.9 µM	30.4 µM	1.69 µM	3.28 µM	1.83 µM	3.52 µM	3.41 µM	13.4 µM	1.19 µM	2.46 µM
CCN(CC)c1ccc2c(c1)OC(N)=C(C#N)C2c1cc(OC)c2c(c1)OCO2 (stereo unspecified)	0.0302 µM	1.35 µM	< 0.0157 µM	2.68 µM	0.0325 µM	0.603 µM	0.403 µM	> 43.3 µM	0.0661 µM	0.455 µM	0.0322 µM	> 100 µM	0.445 µM	5.59 µM	0.0602 µM	20.3 µM	0.0324 µM	1.78 µM	0.0168 µM	0.0466 µM
CCN(CC)CCCC(CNc1ccnc2cc(Cl)ccc12)c1ccc(Cl)cc1 (stereo unspecified)	1.42 µM and 0.834 µM	2.96 µM and 2.21 µM	1.79 µM and 1.35 µM	3.54 µM and 2.76 µM	1.77 µM and 1.54 µM	3.52 µM and 4.33 µM	0.891 µM and 0.974 µM	2.24 µM and 2.31 µM	1.79 µM and 1.75 µM	3.79 µM and 3.38 µM	2.06 µM and 1.63 µM	4.2 µM and 3.42 µM	1.41 µM and 1.25 µM	3.02 µM and 2.72 µM	1.83 µM and 1.64 µM	4.23 µM and 3.73 µM	1.54 µM and 0.925 µM	6.12 µM and 2.36 µM	2.46 µM and 2.38 µM	7.73 µM and 9.83 µM
COc1ccc(/C=C(/C(=O)N2CCN(c3ccccc3)CC2)c2cc(OC)c(OC)c(OC)c2)cc1O	0.499 µM	> 100 µM	0.808 µM	> 100 µM	0.414 µM	> 100 µM		90.8 µM	0.391 µM	98.5 µM	0.764 µM	> 100 µM	24.7 µM	> 100 µM	0.55 µM	> 100 µM	0.37 µM	> 100 µM	0.322 µM	6.76 µM
C=COCCCOc1ccccc1		> 100 µM	> 100 µM	> 100 µM		> 100 µM		> 100 µM	> 100 µM	> 100 µM		> 100 µM		> 100 µM		> 100 µM		> 100 µM		> 100 µM
CC(C)=CCNc1ncnc2c1ncn2C1OC(CO)C(O)C1O (stereo unspecified)	4.49 µM	94.3 µM	0.671 µM	2.6 µM	2.74 µM	> 630 µM	6.94 µM	50 µM	0.57 µM	2.8 µM	2.85 µM	299 µM	226 µM	> 1000 µM	1.3 µM	6.7 µM	0.499 µM	5.77 µM	0.373 µM	1.1 µM
C=C(c1nc2ccc(Cl)cc2[nH]c1=O)C(O)c1ccc(C(O)C(=O)c2nc3ccc(Cl)cc3[nH]c2=O)cc1 (stereo unspecified)		> 100 µM		> 100 µM		> 100 µM		> 100 µM		> 100 µM		> 100 µM		> 100 µM		> 100 µM		> 100 µM		> 100 µM
O=C(OC(CNc1cc(=O)n(Cc2ccccc2)c(=O)n1Cc1ccccc1)CN1CCCC1)c1ccccc1 (stereo unspecified)	> 100 µM	> 100 µM	> 100 µM	> 100 µM	> 100 µM	> 100 µM	> 100 µM	> 100 µM	0.781 µM	> 100 µM	> 100 µM	> 100 µM	> 100 µM	> 100 µM	> 100 µM	> 100 µM	56.8 µM	> 100 µM	> 100 µM	> 100 µM
CCN(CC)CCC(CNc1ccnc2cc(Cl)ccc12)c1ccc(OC)cc1 (stereo unspecified)	3.5 µM and 2.44 µM	16.2 µM and 6.32 µM	2.87 µM and 1.95 µM	10.2 µM and 7.8 µM	12.8 µM and 5.62 µM	28.6 µM and 21.5 µM	1.54 µM and 1.88 µM	4.35 µM and 11.6 µM	8.14 µM and 8.47 µM	23.4 µM and 22.6 µM	16.3 µM and 11.3 µM	32.5 µM and 26.1 µM	1.95 µM and 1.86 µM	3.76 µM and 3.64 µM	14.4 µM and 9.7 µM	39.2 µM and 34 µM	5.15 µM and 1.87 µM	24.7 µM and 14.4 µM	16.7 µM and 6.96 µM	66.3 µM and 33.1 µM
O=C(CNc1ccc(Cl)cc1)Nc1ccc(-c2nc3ccccc3s2)cc1	2.12 µM	4.24 µM	14.1 µM	28.8 µM	5.39 µM	16.5 µM	4.03 µM	15.4 µM	1.83 µM	4.7 µM	8.1 µM	27.4 µM	6.06 µM	12.6 µM	8.62 µM	23.8 µM	1.74 µM	3.76 µM	2.04 µM	3.99 µM
CCCCCCNC(=O)c1cc(NCc2cc(O)ccc2O)ccc1O	16.1 µM	31 µM	19.4 µM	49.2 µM	11.5 µM	29 µM	1.22 µM	2.76 µM	1.14 µM	4.27 µM	23.5 µM	71.5 µM	2.74 µM	8.29 µM	30 µM	91.5 µM	4.75 µM	24.9 µM	2.76 µM	13 µM
